Test [1] concerns MCF7. The experiment in a line: Antiproliferative activity against human MCF7 cells assessed as reduction in cell viability at 5 to 100 uM incubated for 120 hrs by MTT assay relative to fulvestrant/elacestrant. In kind it is functional, cell-based. Particulars: dose 5-100 µM. On the technique in general: Tetrazolium assays rely on reduction of a dye to a coloured formazan, in cell work by metabolically active cells.

The target of test [2] is T1, Estrogen receptor (Homo sapiens) (UniProt P03372).
T1 sequence (whole entry): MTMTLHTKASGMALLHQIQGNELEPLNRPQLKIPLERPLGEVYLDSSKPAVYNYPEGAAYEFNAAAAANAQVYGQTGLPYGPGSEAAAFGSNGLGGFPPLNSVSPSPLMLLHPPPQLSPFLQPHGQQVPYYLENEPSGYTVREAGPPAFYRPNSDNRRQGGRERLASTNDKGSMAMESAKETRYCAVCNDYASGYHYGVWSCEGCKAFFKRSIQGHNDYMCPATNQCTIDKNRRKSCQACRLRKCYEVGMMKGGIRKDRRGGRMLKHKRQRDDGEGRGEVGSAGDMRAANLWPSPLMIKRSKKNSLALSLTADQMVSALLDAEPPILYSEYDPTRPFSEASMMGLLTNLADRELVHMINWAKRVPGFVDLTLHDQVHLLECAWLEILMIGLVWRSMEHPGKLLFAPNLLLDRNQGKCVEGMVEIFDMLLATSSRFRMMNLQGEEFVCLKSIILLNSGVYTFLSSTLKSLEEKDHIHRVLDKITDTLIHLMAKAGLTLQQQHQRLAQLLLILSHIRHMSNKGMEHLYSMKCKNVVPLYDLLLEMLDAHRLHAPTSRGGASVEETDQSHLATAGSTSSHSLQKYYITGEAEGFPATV
Nature of the test: Induction of selective estrogen receptor degradation (SERD) in human MCF7 cells assessed as decrease in GREB1 mRNA expression level incubated for 24 hrs in presence of E2 (estrogen) by RT-qPCR analysis. In kind it is cell-based.

Test [3] addresses T1, Estrogen receptor (Homo sapiens). Nature of the test: Induction of selective estrogen receptor degradation (SERD) in human MCF7 cells assessed as decrease in TFF1 mRNA expression level incubated for 24 hrs in presence of E2 (estrogen) by RT-qPCR analysis. In kind it is cell-based. (Real-time PCR tracks product formation cycle by cycle.)
For test [4] the target is unchanged. Nature of the test: Induction of selective estrogen receptor degradation (SERD) in human MCF7 cells at 5 uM incubated for 24 hrs by Western blot analysis. In kind it is cell-based. A general note: A western blot detects proteins with antibodies after separation by electrophoresis.
The target is the same in test [5]. Nature of the test: Induction of selective estrogen receptor degradation (SERD) in human MCF7 cells assessed as decrease in CCND1 mRNA expression level at 1 to 10 uM incubated for 24 hrs in presence of E2 (estrogen) by RT-qPCR analysis. In kind it is cell-based. Particulars: dose 1-10 µM.
The target is the same in test [6]. The experiment in a line: Induction of selective estrogen receptor degradation (SERD) in human MCF7 cells assessed as decrease in TFF1 mRNA expression level at 1 to 10 uM incubated for 24 hrs in presence of E2 (estrogen) by RT-qPCR analysis. In kind it is cell-based. Particulars: dose 1-10 µM.
For test [7] the target is unchanged. The experiment in a line: Induction of selective estrogen receptor degradation (SERD) in human MCF7 cells assessed as decrease in CCND1 mRNA expression level at 1 uM incubated for 24 hrs by RT-qPCR analysis. In kind it is cell-based.
Test [8] has the same target. Nature of the test: Induction of selective estrogen receptor degradation (SERD) in human MCF7 cells assessed as decrease in TFF1 mRNA expression level at 1 uM incubated for 24 hrs by RT-qPCR analysis. In kind it is cell-based.
The next test relates to T47D. Nature of the test: Antiproliferative activity against human T47D cells assessed as reduction in cell viability at 1 to 10 uM incubated for 120 hrs by MTT assay. In kind it is functional, cell-based. Particulars: dose 1-10 µM.
In test [9] the target is T1, Estrogen receptor (Homo sapiens). Nature of the test: Induction of selective estrogen receptor degradation (SERD) in human T47D cells at 5 uM incubated for 24 hrs by Western blot analysis. In kind it is cell-based.
Test [10] has as its system MCF7. The experiment in a line: Inhibition of ERE signaling in human MCF7 cells transfected with 3X ERE TATA luciferase plasmid assessed as estrogen response element transcription at 10 uM incubated for 24 hrs by luminescence based analysis relative to elacestrant. In kind it is functional, cell-based.

Calls of active or inactive are those of the source. No cut-off for these calls is given here.

These results are taken from ChEMBL document CHEMBL6127094, “Discovery of non-antiproliferative selective estrogen receptor degraders (SERDs) based on scaffold optimization of elacestrant” (Eur J Med Chem, 2024).

In the case of `CCN(Cc1ccc(OCCN2CCCC2)cc1)c1cc(C)ccc1N1CCc2cc(O)ccc2C1`, in the test on MCF7 [1], the result was inactive.

As for `CCN(C(=O)c1ccc(OCCN2CCCC2)cc1)c1cc(C(F)(F)F)ccc1N1CCc2cc(O)ccc2C1`, in the test with MCF7 [1], the outcome was inactive.

As to `CCN(Cc1ccc(OCCN2CCCCCC2)cc1)c1cc(C(F)(F)F)ccc1N1CCc2cc(O)ccc2C1`, the outcome with MCF7 [1] was inactive.

For the compound `CCN(Cc1ccc(/C=C/C(=O)O)cc1)c1ccccc1N1CCc2cc(O)ccc2C1`, the outcome with MCF7 [1] was inactive.

Turning to `CCNCCc1ccc(CN(CC)c2cc(OC)ccc2[C@@H]2CCc3cc(O)ccc3C2)cc1`, the outcome in test [2] and in test [3] was Active.

As for `CCN(Cc1ccc(OCCN2CCCC2)cc1)c1ccccc1N1CCc2cc(O)ccc2C1`, the result in the test on MCF7 [1] was inactive.

For the compound `CCN(C(=O)c1ccc(OCCN2CCCC2)cc1)c1cc(C)ccc1N1CCc2cc(O)ccc2C1`, the result with MCF7 [1] was inactive.

As for `CCN(Cc1ccc(OCCN2CCCCCC2)cc1)c1ccccc1N1CCc2cc(O)ccc2C1`, the result in the test with MCF7 [1] was inactive.

As for `CCN(Cc1ccc(OCCN2CCCC2)cc1)c1cc(C(F)(F)F)ccc1N1CCc2cc(O)ccc2C1`, the result in the test on MCF7 [1] was inactive.

On to `CCN(Cc1ccc(/C=C/C(=O)O)cc1)c1cc(C(F)(F)F)ccc1N1CCc2cc(O)ccc2C1`, for which the outcome in the test on MCF7 [1] and in the test with T47D was inactive. Also, the outcome in test [4], in test [5], in test [6], in test [7], in test [8] and in test [9] was Active. Moreover, in the test with MCF7 [10], the inhibition result is “inactive”.

For the compound `CCN(Cc1ccc(OCCN2CCCCCC2)cc1)c1cc(F)ccc1N1CCc2cc(O)ccc2C1`, the outcome in the test with MCF7 [1] was inactive.

As for `CCN(Cc1ccc(OCCN2CCCC2)cc1)c1cc(F)ccc1N1CCc2cc(O)ccc2C1`, the result in the test with MCF7 [1] was inactive.

`CCN(Cc1ccc(/C=C/C(=O)O)cc1)c1cc(C)ccc1N1CCc2cc(O)ccc2C1`: the result in the test with MCF7 [1] was inactive.

As for `CCN(Cc1ccc(OCCN2CCCCCC2)cc1)c1cc(C)ccc1N1CCc2cc(O)ccc2C1`, the result in the test with MCF7 [1] was inactive.

Turning to `CCN(Cc1ccc(/C=C/C(=O)O)cc1)c1cc(F)ccc1N1CCc2cc(O)ccc2C1`, the outcome with MCF7 [1] was inactive.

With `CCN(C(=O)c1ccc(OCCN2CCCC2)cc1)c1ccccc1N1CCc2cc(O)ccc2C1`, in the test with MCF7 [1], the outcome was inactive.

In the case of `CCN(C(=O)c1ccc(OCCN2CCCC2)cc1)c1cc(F)ccc1N1CCc2cc(O)ccc2C1`, the result in the test on MCF7 [1] was inactive.
